Laboratory results from the supplement of paper PMC10307832.

Key:
Assay in all cases: relative viability (nuclei count vs DMSO), 5 days (fraction); higher = more cells survive
[1] = tested on: A-427
In short: (§1)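 After 5 days of treatment, lung cancer cells in 1536-well plates were fixed and stained in a single step (final 0.05% Triton X-100, 1% formaldehyde, 1 ug/ml Hoechst) and their nuclei counted on 4× images. Treatment had been applied by pin tool the day after seeding as one drug alone or as a fixed anchor-drug dose with five library-drug doses (not always all listed) in √10 steps. Relative viability is the nuclei count of treated wells divided by that of vehicle wells, and values are medians of duplicate plates.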

[2] = tested on: CAL-12T
In short: as §1

[3] = tested on: COR-L 105
In short: as §1

[4] = tested on: EMC-BAC-2
In short: as §1

[5] = tested on: HARA
In short: as §1

[6] = tested on: HCC-366
In short: as §1

[7] = tested on: HCC-827
In short: as §1

[8] = tested on: HOP-62
In short: as §1

[9] = tested on: LCLC-103H
In short: as §1

[10] = tested on: NCI-H1355
In short: as §1

[11] = tested on: NCI-H1437
In short: as §1

[12] = tested on: NCI-H1755
In short: as §1

[13] = tested on: NCI-H1792
In short: as §1

[14] = tested on: NCI-H1915
In short: as §1

[15] = tested on: NCI-H1975
In short: as §1

[16] = tested on: NCI-H2009
In short: as §1

[17] = tested on: NCI-H2228
In short: as §1

[18] = tested on: NCI-H23
In short: as §1

[19] = tested on: NCI-H460
In short: as §1

[20] = tested on: NCI-H727
In short: as §1

[21] = tested on: SK-LU-1
In short: as §1

[22] = tested on: SW 1573
In short: as §1

C=C1C(=O)O[C@@H](CCCCCCCC)[C@@H]1C(=O)O [C-75] + CC(C)C[C@H](NC(=O)[C@H](Cc1ccccc1)NC(=O)c1cnccn1)B(O)O [Bortezomib] (partner 0.002 µM)
relative viability ([1]; first compound 0.08 µM): 1.01 | relative viability ([1]; first compound 0.253 µM): 0.988 | relative viability ([1]; first compound 0.8 µM): 1.02 | relative viability ([1]; first compound 2.53 µM): 0.78 | relative viability ([1]; first compound 8 µM): 1.12 | relative viability ([2]; first compound 0.08 µM): 0.949 | relative viability ([2]; first compound 0.253 µM): 0.967 | relative viability ([2]; first compound 0.8 µM): 0.758 | relative viability ([2]; first compound 2.53 µM): 0.946 | relative viability ([2]; first compound 8 µM): 0.928 | relative viability ([3]; first compound 0.08 µM): 0.838 | relative viability ([3]; first compound 0.253 µM): 0.627 | relative viability ([3]; first compound 0.8 µM): 0.779 | relative viability ([3]; first compound 2.53 µM): 0.809 | relative viability ([3]; first compound 8 µM): 0.728 | relative viability ([4]; first compound 0.08 µM): 1.1 | relative viability ([4]; first compound 0.253 µM): 1.05 | relative viability ([4]; first compound 0.8 µM): 1.11 | relative viability ([4]; first compound 2.53 µM): 0.914 | relative viability ([4]; first compound 8 µM): 1.13 | relative viability ([5]; first compound 0.08 µM): 1.14 | relative viability ([5]; first compound 0.253 µM): 1.22 | relative viability ([5]; first compound 0.8 µM): 1.07 | relative viability ([5]; first compound 8 µM): 1.26 | relative viability ([6]; first compound 0.08 µM): 1.07 | relative viability ([6]; first compound 0.253 µM): 1.16 | relative viability ([6]; first compound 0.8 µM): 0.973 | relative viability ([6]; first compound 8 µM): 0.941 | relative viability ([7]; first compound 0.08 µM): 1.09 | relative viability ([7]; first compound 0.253 µM): 0.995 | relative viability ([7]; first compound 0.8 µM): 0.972 | relative viability ([7]; first compound 2.53 µM): 1.01 | relative viability ([7]; first compound 8 µM): 1.08 | relative viability ([8]; first compound 0.08 µM): 0.651 | relative viability ([8]; first compound 0.253 µM): 0.676 | relative viability ([8]; first compound 0.8 µM): 0.89 | relative viability ([8]; first compound 2.53 µM): 0.778 | relative viability ([8]; first compound 8 µM): 0.916 | relative viability ([9]; first compound 0.08 µM): 1.23 | relative viability ([9]; first compound 0.253 µM): 0.907 | relative viability ([9]; first compound 0.8 µM): 1.06 | relative viability ([9]; first compound 2.53 µM): 0.811 | relative viability ([9]; first compound 8 µM): 1.18 | relative viability ([10]; first compound 0.08 µM): 1.24 | relative viability ([10]; first compound 0.253 µM): 1.28 | relative viability ([10]; first compound 0.8 µM): 1.07 | relative viability ([10]; first compound 2.53 µM): 1.1 | relative viability ([10]; first compound 8 µM): 1.21 | relative viability ([11]; first compound 0.08 µM): 0.572 | relative viability ([11]; first compound 0.253 µM): 0.546 | relative viability ([11]; first compound 0.8 µM): 0.483 | relative viability ([11]; first compound 2.53 µM): 0.546 | relative viability ([11]; first compound 8 µM): 0.455 | relative viability ([12]; first compound 0.08 µM): 0.985 | relative viability ([12]; first compound 0.253 µM): 0.96 | relative viability ([12]; first compound 0.8 µM): 0.925 | relative viability ([12]; first compound 2.53 µM): 0.805 | relative viability ([12]; first compound 8 µM): 0.957 | relative viability ([13]; first compound 0.08 µM): 0.979 | relative viability ([13]; first compound 0.253 µM): 0.881 | relative viability ([13]; first compound 0.8 µM): 0.845 | relative viability ([13]; first compound 2.53 µM): 0.295 | relative viability ([13]; first compound 8 µM): 0.886 | relative viability ([14]; first compound 0.08 µM): 0.89 | relative viability ([14]; first compound 0.253 µM): 0.977 | relative viability ([14]; first compound 0.8 µM): 0.935 | relative viability ([14]; first compound 2.53 µM): 0.81 | relative viability ([14]; first compound 8 µM): 0.922 | relative viability ([15]; first compound 0.08 µM): 0.332 | relative viability ([15]; first compound 0.253 µM): 0.395 | relative viability ([15]; first compound 0.8 µM): 0.4 | relative viability ([15]; first compound 2.53 µM): 0.283 | relative viability ([15]; first compound 8 µM): 0.361 | relative viability ([16]; first compound 0.08 µM): 1.03 | relative viability ([16]; first compound 0.253 µM): 1.06 | relative viability ([16]; first compound 0.8 µM): 0.927 | relative viability ([16]; first compound 2.53 µM): 0.826 | relative viability ([16]; first compound 8 µM): 0.866 | relative viability ([17]; first compound 0.08 µM): 0.836 | relative viability ([17]; first compound 0.253 µM): 1.43 | relative viability ([17]; first compound 0.8 µM): 0.8 | relative viability ([17]; first compound 2.53 µM): 0.729 | relative viability ([17]; first compound 8 µM): 0.746 | relative viability ([18]; first compound 0.08 µM): 0.953 | relative viability ([18]; first compound 0.253 µM): 1.07 | relative viability ([18]; first compound 0.8 µM): 0.962 | relative viability ([18]; first compound 2.53 µM): 0.865 | relative viability ([18]; first compound 8 µM): 0.696 | relative viability ([19]; first compound 0.08 µM): 1.05 | relative viability ([19]; first compound 0.253 µM): 1.22 | relative viability ([19]; first compound 0.8 µM): 0.982 | relative viability ([19]; first compound 8 µM): 0.945 | relative viability ([20]; first compound 0.08 µM): 0.773 | relative viability ([20]; first compound 0.253 µM): 1.32 | relative viability ([20]; first compound 0.8 µM): 0.614 | relative viability ([20]; first compound 2.53 µM): 0.582 | relative viability ([20]; first compound 8 µM): 0.99 | relative viability ([21]; first compound 0.08 µM): 1.24 | relative viability ([21]; first compound 0.253 µM): 1.11 | relative viability ([21]; first compound 0.8 µM): 0.836 | relative viability ([21]; first compound 2.53 µM): 0.847 | relative viability ([21]; first compound 8 µM): 0.658 | relative viability ([22]; first compound 0.08 µM): 1.05 | relative viability ([22]; first compound 0.253 µM): 0.949 | relative viability ([22]; first compound 0.8 µM): 1.03 | relative viability ([22]; first compound 2.53 µM): 1.07 | relative viability ([22]; first compound 8 µM): 0.912
